Data from patent US20050054615A1, “Calmodulin independent activation of nitric oxide synthase” (Rensselaer Polytechnic Institute, priority 2002, published 2005).
Entries after “also recorded” stand apart in the source; their conditions may differ. Where two headings read alike, the source gives them in different places.

Columns and labels:
eNOS [1] = target: T1, eNOS (Bos taurus, UniProt P29473); test: NADPH-dependent cytochrome c reduction (electron transfer), eNOS; type: biochemical, bovine
T1 construct: further column purification with gel filtration or anion exchange produces very pure full length NOS; made in house; host or cells: E. coli BL21 (pCWori+)
T1 sequence (P29473 1-1205): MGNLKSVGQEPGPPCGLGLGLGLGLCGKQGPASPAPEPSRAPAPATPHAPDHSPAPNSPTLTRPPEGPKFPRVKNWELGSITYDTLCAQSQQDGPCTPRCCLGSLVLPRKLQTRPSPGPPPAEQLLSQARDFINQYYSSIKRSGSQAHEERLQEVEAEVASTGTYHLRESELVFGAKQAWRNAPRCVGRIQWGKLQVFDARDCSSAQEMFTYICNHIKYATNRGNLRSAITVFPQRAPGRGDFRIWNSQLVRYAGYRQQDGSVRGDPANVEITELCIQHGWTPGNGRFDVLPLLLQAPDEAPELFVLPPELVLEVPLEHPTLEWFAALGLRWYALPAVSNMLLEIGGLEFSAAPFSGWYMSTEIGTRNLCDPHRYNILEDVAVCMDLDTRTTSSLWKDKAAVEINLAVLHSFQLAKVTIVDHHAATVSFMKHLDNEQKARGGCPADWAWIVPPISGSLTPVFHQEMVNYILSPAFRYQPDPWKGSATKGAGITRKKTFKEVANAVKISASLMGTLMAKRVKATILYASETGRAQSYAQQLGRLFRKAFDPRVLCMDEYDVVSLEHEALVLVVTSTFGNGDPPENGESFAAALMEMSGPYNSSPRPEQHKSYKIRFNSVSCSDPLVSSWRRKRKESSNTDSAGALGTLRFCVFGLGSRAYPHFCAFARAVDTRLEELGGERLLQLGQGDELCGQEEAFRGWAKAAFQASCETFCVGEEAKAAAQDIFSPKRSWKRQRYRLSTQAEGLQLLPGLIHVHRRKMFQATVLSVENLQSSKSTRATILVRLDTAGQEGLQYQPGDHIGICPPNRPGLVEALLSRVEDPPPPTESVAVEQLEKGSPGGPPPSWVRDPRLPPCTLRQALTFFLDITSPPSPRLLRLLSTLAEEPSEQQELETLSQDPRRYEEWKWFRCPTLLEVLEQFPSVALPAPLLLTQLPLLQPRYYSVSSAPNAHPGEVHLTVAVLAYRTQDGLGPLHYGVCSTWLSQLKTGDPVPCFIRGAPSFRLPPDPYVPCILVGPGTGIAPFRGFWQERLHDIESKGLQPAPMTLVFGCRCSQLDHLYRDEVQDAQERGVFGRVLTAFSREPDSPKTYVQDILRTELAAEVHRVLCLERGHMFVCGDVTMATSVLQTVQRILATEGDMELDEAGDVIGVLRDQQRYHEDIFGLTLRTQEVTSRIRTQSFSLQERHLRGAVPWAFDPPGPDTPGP

nNOS [2] = target: T2, nNOS (Rattus norvegicus, UniProt P29476); test: NADPH-dependent cytochrome c reduction (electron transfer), nNOS; type: biochemical
T2 construct: further column purification with gel filtration or anion exchange produces very pure full length NOS; made in house; host or cells: E. coli BL21 (pCWori+)
T2 sequence (P29476 whole entry): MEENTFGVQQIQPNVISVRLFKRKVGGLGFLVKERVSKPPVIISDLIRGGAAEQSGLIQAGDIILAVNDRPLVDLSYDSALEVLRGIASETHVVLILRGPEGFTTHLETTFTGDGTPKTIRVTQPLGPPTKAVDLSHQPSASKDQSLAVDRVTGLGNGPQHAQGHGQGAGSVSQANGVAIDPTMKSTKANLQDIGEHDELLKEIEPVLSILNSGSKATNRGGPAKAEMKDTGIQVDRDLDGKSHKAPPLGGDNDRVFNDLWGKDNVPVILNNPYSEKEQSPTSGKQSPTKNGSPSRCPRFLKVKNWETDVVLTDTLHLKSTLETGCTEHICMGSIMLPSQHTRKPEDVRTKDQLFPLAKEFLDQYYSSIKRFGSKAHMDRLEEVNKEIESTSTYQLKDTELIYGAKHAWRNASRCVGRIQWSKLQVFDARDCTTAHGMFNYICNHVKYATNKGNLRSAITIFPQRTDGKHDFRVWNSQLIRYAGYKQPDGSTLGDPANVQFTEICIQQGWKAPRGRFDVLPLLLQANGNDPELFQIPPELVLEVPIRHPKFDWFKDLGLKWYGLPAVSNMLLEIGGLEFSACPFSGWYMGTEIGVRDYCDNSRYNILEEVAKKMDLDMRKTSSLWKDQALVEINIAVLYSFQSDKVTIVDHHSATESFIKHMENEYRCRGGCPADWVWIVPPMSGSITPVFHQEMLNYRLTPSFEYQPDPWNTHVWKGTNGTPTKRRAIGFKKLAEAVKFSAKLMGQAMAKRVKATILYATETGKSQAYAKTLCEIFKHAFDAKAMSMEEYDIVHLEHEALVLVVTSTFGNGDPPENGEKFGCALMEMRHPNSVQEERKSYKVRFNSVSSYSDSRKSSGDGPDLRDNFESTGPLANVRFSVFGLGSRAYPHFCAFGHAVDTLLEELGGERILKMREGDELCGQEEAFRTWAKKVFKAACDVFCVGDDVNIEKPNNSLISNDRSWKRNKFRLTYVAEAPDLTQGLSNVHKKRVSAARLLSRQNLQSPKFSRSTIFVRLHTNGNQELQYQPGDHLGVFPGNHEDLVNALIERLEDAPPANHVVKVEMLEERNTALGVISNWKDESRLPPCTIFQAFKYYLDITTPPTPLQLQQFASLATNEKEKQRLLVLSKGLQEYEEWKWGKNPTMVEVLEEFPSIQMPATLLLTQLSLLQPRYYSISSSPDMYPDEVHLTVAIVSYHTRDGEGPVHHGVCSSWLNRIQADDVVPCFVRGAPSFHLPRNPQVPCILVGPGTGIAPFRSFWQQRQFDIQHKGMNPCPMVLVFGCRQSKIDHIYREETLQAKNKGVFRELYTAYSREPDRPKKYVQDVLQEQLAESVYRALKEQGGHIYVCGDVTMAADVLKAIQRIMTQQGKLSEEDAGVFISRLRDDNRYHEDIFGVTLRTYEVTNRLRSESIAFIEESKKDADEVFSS

cNOS = test: Activation of constitutive NOS by nucleotide ligands; type: biochemical
Method: The effect of 2′AMP on the optical spectra of reductase cofactors in eNOS was also examined for eNOS as isolated and reduced with 1 mM NADPH. eNOS only, eNOS NADPH, eNOS NADPH with 2′AMP, eNOS NADPH with 2′AMP and CAM, and NADPH 2′AMP were compared.
(§1) Nitric Oxide production was assayed using the Griess assay as adapted for microtiter plates (Gross, S. S. (1996) Methods Enzymol. 268:159-68); calcium dependence was measured using EDTA as a Ca+2 buffer system. […] NADPH-dependent cytochrome c reduction was measured spectrophotometrically as described by McMillan et al (McMillan, K., et al., (1992) Proc Nat. Acad. Sci. U.S.A. 89, 11141-11145), adapted to 96-well plate microtiter plates. In each well, the […] reaction mixture contained 50 mM Na+ TRIS buffer, pH 7.5, 50 uM EDTA, 50 uM NADPH, 50 uM horse heart cytochrome c, and ˜10 nM of nNOS. Cytochrome c reduction was monitored at 550 nm (ε=2.1×104/M). In Cam/Ca+2 dependence studies, 0.75 uM CaCl2 and […] calmodulin were added to reaction mixtures. Assays were performed on a SpectraMAX plate reader (Molecular Devices).

eNOS [3] = target: T3, eNOS (Bos taurus, UniProt P29473); test: Griess assay of NO production by eNOS; type: biochemical, bovine; details: for eNOS activity relative to eNOS activated by CaM alone: initial concentrations of NADPH and 2′AMP equal, presence of calcium/CaM
T3 construct: further column purification with gel filtration or anion exchange produces very pure full length NOS; made in house; host or cells: E. coli BL21 (pCWori+)
Method: as §1
Titration of eNOS with 2′AMP in the presence of ‘fully’ activating levels of Ca+2/CaM was performed using a Greiss assay (see, e.g., the Griess Reagent System, Promega Corporation, Madison, Wis.; and manufacturer's instructions for use). Calcium stoichometries were between two and four. The titration produced an additional activation corresponding to an apparent Kd of ˜1 mM. […] In the most widely used assay systems eNOS is 2-3 fold hyperactivated by 2′AMP (Greiss assay). Enhanced levels of cytochrome c reduction (2-5 fold) can also be observed in both eNOS and nNOS.

iNOS = target: T4, iNOS (Mus musculus, UniProt P29477); test: Effect of NADPH analogs on iNOS electron transfer; type: biochemical, murine; details: Tris buffer, absence of calmodulin
T4 construct: made in house; host or cells: E. coli
T4 sequence (P29477 1-1144): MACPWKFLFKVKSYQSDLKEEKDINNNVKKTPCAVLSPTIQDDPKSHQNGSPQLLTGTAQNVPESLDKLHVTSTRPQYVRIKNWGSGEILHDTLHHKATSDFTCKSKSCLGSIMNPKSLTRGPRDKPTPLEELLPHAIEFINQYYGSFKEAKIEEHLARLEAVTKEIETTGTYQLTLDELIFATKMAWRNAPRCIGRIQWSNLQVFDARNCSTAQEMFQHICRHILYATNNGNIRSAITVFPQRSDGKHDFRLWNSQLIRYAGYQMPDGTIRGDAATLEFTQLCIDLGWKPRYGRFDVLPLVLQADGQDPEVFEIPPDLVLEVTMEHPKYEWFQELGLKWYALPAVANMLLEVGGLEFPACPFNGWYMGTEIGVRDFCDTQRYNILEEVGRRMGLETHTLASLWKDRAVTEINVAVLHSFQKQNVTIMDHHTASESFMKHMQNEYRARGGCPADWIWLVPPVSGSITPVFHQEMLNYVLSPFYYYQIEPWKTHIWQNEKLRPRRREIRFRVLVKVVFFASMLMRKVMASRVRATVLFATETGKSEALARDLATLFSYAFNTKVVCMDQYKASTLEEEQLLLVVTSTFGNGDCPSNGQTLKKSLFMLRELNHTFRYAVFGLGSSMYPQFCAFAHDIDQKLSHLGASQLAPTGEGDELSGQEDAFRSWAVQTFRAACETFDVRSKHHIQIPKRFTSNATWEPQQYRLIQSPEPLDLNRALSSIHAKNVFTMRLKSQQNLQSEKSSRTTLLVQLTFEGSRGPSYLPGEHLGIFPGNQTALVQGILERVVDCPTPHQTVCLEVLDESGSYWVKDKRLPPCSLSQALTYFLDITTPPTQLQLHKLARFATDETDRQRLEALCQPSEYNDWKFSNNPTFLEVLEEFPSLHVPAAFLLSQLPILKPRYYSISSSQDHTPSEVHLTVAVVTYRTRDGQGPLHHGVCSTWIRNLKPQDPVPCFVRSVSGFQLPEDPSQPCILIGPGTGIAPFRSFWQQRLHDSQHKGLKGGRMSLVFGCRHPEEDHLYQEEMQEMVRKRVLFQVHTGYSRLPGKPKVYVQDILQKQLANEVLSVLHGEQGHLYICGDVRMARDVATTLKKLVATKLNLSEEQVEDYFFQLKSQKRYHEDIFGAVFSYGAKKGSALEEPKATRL

nNOS [4] = test: Nitrite production (Griess) of wild type and mutant nNOS enzymes; type: biochemical, rat; details: activity of the enzyme preparation, based on heme content
Method: Expression and purification of wild type and mutant bovine eNOS and rat nNOS. Expression and purification of bovine eNOS and rat nNOS were performed using procedures similar to those previously described (Martasek, P.,et al., (1996) Biochem Biophys Res Commun. 219(2); 359-65). Transformed cells were broken with a French press, and after centrifugation to remove cell debris the supernatant was loaded on a 2′5′ADP affinity column, washed, and eluted with 2′AMP as described (id). High purity preparations can be obtained with a size exclusion step; we used a Superose 6 HR 10/30 column (Pharmacia Biotech AB, Uppsala, Sweden), flow rate 0.4 mL/min, buffer composition −50 mM Tris-HCl, pH 7.5, 0.1 mM EDTA, 1 mM-mercaptoethanol, 100 mM NaCl, 10% glycerol (vol/vol). During the purification procedure BH4 or L-arginine were added after elution from the affinity column. Enzyme sample concentrations were determined on the basis of heme concentration, except in heme free preparations, where the flavin concentration was measured. UV-visible absorbance spectra were recorded on an Aminco DW-2000 spectrophotometer.
as §1

[5] = comparison of nucleotide ligands

Nc1ncnc2c1ncn2[C@@H]1O[C@H](CO)[C@@H](O)[C@H]1OP(=O)(O)O [2′AMP]
enhanced level (activation) of cytochrome c reduction (eNOS [1]; eNOS): 2-5 fold
enhanced level (activation) of cytochrome c reduction (nNOS [2]; nNOS): 2-5 fold
activation of cNOS in the absence of calmodulin (cNOS; absence of calmodulin, particularly in Tris buffer): activated cNOS in the absence of calmodulin
hyperactivation of eNOS (eNOS [3]; Good's buffer systems (e.g., HEPES or MOPS), with Ca+2/CaM): 2-3 fold
eNOS activity relative to eNOS activated by CaM alone (eNOS [3]): 2-3 times
eNOS activity relative to eNOS activated by CaM alone (eNOS [3]; listed as 2′ AMP): 3-5 times
hyperactivation of eNOS (eNOS [3]; most widely used assay systems, Greiss assay): 2-3 fold
Kd (eNOS [3]; titration of eNOS in the presence of 'fully' activating levels of Ca+2/CaM, plate reader Greiss assay, read-out: apparent Kd of additional activation): ~1000 µM

Nc1ncnc2c1ncn2[C@@H]1O[C@H](COP(=O)(O)O)[C@@H](OP(=O)(O)O)[C@H]1O [3′5′ ADP]
function as NOS activator (cNOS; [5]): only a very weak activator

Nc1ncnc2c1ncn2[C@@H]1O[C@H](COP(=O)(O)OP(=O)(O)OP(=O)(O)O)[C@@H](O)[C@H]1O [ATP]
activation of electron transfer by ATP (eNOS [1]; wild type eNOS, Tris buffer, absence of calmodulin): activation of electron transfer
activation of electron transfer by ATP (nNOS [2]; wild type nNOS, Tris buffer, absence of calmodulin): activation of electron transfer
inhibition of iNOS (iNOS): INOS is inhibited; also recorded: inhibition of INOS

Nc1ncnc2c1ncn2[C@@H]1O[C@@H]2COP(=O)(O)O[C@H]2[C@H]1O [Cyclic AMP]
function as NOS activator (cNOS): did not function as activators

Nc1nc2c(ncn2[C@@H]2O[C@H](COP(=O)(O)OP(=O)(O)O)[C@@H](O)[C@H]2O)c(=O)[nH]1 [GDP]
function as NOS activator (cNOS; [5]): did not function as activators

Nc1nc2c(ncn2[C@@H]2O[C@H](COP(=O)(O)OP(=O)(O)OP(=O)(O)O)[C@@H](O)[C@H]2O)c(=O)[nH]1 [GTP]
function as NOS activator (cNOS; [5]): did not function as activators

Nc1nc2c(ncn2[C@@H]2O[C@@H]3COP(=O)(O)O[C@H]3[C@H]2O)c(=O)[nH]1 [cyclic GMP]
function as NOS activator (cNOS; [5]): did not function as activators

G1074D mutant: rat nNOS small insertion mutant, Gly 1074 replaced by Asp
Nitrite production (nNOS [4]): 179.8 nmoles/min/mg NOS

G1074Y mutant: rat nNOS small insertion mutant, Gly 1074 replaced by Tyr
Nitrite production (nNOS [4]): 186.2 nmoles/min/mg NOS

wild-type nNOS: wild type rat neuronal nitric oxide synthase expressed in E. coli
Nitrite production (nNOS [4]): 292.2 nmoles/min/mg NOS
